From article PMC5513037, “Examining the influence of specificity ligands and ATP-competitive ligands on the overall effectiveness of bivalent kinase inhibitors” (Proteome Science, 2017)

Assays:
Experiment in all cases: KAM-matrix competition in K562 lysate;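 on 0.001 uM KAM: median log10 fold change of treatment over DMSO control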;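 on 0.01 uM KAM: median log10 fold change of treatment over DMSO control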;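 on 0.1 uM KAM: median log10 fold change of treatment over DMSO control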;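 on 1 uM KAM: median log10 fold change of treatment over DMSO control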;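 on 10 uM KAM: median log10 fold change of treatment over DMSO control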
Format in all cases: binding
DYRK1A = target: T1, DYRK1A (Homo sapiens, UniProt Q13627)
T1 construct: endogenous in cells; host or cells: K562
Protocol: (§1) Supplement 12953_2017_125_MOESM1_ESM.zip/MS_Supp Info.xlsx, sheet "KAM" | column: 10 uM KAM; 1 uM KAM; 0.1 uM KAM; 0.01 uM KAM; 0.001 uM KAM; RB50

MAP2K3 = target: T2, MAP2K3 (Homo sapiens, UniProt P46734);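 on 0.001 uM KAM: median log10 fold change of treatment over DMSO control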;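 on 0.01 uM KAM: median log10 fold change of treatment over DMSO control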;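 on 0.1 uM KAM: median log10 fold change of treatment over DMSO control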;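 on 1 uM KAM: median log10 fold change of treatment over DMSO control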;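 on 10 uM KAM: median log10 fold change of treatment over DMSO control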
T2 construct: endogenous in cells; host or cells: K562 cell lysate
T2 sequence (P46734 1-347): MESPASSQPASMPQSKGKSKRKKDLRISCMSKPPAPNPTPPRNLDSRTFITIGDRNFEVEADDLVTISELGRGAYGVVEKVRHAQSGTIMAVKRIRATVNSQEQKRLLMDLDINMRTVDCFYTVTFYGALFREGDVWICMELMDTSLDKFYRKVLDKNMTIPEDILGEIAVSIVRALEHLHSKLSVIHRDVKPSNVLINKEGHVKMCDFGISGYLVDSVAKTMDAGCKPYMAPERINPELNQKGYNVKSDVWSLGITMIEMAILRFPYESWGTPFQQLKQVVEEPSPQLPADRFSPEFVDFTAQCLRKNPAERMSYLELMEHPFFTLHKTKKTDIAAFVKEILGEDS
Protocol: as §1

RPS6KA3 = target: T3, RPS6KA3 (Homo sapiens, UniProt P51812);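 on 0.001 uM KAM: median log10 fold change of treatment over DMSO control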;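 on 0.01 uM KAM: median log10 fold change of treatment over DMSO control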;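 on 0.1 uM KAM: median log10 fold change of treatment over DMSO control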;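 on 1 uM KAM: median log10 fold change of treatment over DMSO control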;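 on 10 uM KAM: median log10 fold change of treatment over DMSO control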
T3 construct: endogenous in cells; host or cells: K562
Protocol: as §1

STK24 = target: T4, STK24 (Homo sapiens, UniProt Q9Y6E0);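 on 0.001 uM KAM: median log10 fold change of treatment over DMSO control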;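 on 0.01 uM KAM: median log10 fold change of treatment over DMSO control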;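 on 0.1 uM KAM: median log10 fold change of treatment over DMSO control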;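 on 1 uM KAM: median log10 fold change of treatment over DMSO control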;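 on 10 uM KAM: median log10 fold change of treatment over DMSO control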
T4 construct: endogenous in cells; host or cells: K562
Protocol: as §1

TEC = target: T5, TEC (Homo sapiens, UniProt P42680)
T5 construct: endogenous in cells; host or cells: K562 cell lysate
T5 sequence (P42680 1-631): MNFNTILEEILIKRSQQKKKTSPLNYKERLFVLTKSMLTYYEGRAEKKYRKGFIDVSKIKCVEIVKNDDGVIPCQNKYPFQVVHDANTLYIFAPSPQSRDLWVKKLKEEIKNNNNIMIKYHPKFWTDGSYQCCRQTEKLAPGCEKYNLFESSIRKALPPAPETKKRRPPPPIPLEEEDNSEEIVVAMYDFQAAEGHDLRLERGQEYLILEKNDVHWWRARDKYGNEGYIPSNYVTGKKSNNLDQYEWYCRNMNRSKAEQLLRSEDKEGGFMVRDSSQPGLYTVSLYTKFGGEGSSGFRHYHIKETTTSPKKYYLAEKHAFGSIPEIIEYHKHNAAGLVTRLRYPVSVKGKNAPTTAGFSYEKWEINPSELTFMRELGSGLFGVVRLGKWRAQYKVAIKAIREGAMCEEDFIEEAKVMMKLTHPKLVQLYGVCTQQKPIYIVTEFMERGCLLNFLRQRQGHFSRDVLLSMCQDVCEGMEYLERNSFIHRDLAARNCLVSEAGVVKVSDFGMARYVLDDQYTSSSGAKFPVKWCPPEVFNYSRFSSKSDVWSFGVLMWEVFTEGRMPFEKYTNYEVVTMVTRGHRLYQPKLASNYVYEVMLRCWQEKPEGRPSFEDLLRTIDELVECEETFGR
Protocol: as §1

MAP3K7 = target: T6, MAP3K7 (Homo sapiens, UniProt O43318)
T6 construct: endogenous in cells; host or cells: K562 cells (lysate)
T6 sequence (O43318 1-606): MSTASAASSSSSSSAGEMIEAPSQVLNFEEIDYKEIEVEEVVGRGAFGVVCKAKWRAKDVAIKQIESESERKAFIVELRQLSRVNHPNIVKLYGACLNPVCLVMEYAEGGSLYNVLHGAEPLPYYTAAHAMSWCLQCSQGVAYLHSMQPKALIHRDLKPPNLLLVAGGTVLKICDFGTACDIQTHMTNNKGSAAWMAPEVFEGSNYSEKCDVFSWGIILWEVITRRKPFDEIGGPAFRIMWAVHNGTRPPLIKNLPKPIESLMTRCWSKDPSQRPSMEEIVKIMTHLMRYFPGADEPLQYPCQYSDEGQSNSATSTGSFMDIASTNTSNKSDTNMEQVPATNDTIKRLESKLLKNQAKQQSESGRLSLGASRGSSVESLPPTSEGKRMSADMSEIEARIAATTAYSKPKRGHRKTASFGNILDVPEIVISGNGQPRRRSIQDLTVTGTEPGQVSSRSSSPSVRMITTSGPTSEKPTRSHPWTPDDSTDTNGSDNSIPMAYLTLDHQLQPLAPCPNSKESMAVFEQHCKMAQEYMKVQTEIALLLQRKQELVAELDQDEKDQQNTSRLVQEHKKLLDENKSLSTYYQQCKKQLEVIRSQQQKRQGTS
Protocol: as §1

JAK1 = target: T7, JAK1 (Homo sapiens, UniProt P23458)
T7 construct: endogenous in cells; host or cells: K562
Protocol: as §1

STK26 = target: T8, STK26 (Homo sapiens, UniProt Q9P289)
T8 construct: endogenous in cells; host or cells: K562
Protocol: as §1

KIT = target: T9, KIT (Homo sapiens, UniProt P10721);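 on 0.001 uM KAM: median log10 fold change of treatment over DMSO control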;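 on 0.01 uM KAM: median log10 fold change of treatment over DMSO control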;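 on 0.1 uM KAM: median log10 fold change of treatment over DMSO control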;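 on 1 uM KAM: median log10 fold change of treatment over DMSO control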;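 on 10 uM KAM: median log10 fold change of treatment over DMSO control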
T9 construct: endogenous in cells; host or cells: K562 cells (combined S0.8 and P0.8 lysate)
Protocol: as §1

[1] = read-out: RB50 (the source's name)
[2] = KAM 0.001-10 uM, read-out: RB50 (the source's name)

T4 sequence (Q9Y6E0 whole entry): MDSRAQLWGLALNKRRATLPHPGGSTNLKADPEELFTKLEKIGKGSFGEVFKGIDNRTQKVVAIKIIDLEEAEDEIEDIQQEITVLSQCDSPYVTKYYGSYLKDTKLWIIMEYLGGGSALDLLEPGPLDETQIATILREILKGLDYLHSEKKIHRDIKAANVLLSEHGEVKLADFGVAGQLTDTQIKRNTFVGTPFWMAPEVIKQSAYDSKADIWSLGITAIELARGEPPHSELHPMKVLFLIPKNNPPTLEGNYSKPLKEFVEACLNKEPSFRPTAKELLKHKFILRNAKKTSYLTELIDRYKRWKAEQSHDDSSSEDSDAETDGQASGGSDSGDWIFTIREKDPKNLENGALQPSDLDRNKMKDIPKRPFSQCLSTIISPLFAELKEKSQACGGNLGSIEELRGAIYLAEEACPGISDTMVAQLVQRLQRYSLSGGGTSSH
T9 sequence (P10721 26-976): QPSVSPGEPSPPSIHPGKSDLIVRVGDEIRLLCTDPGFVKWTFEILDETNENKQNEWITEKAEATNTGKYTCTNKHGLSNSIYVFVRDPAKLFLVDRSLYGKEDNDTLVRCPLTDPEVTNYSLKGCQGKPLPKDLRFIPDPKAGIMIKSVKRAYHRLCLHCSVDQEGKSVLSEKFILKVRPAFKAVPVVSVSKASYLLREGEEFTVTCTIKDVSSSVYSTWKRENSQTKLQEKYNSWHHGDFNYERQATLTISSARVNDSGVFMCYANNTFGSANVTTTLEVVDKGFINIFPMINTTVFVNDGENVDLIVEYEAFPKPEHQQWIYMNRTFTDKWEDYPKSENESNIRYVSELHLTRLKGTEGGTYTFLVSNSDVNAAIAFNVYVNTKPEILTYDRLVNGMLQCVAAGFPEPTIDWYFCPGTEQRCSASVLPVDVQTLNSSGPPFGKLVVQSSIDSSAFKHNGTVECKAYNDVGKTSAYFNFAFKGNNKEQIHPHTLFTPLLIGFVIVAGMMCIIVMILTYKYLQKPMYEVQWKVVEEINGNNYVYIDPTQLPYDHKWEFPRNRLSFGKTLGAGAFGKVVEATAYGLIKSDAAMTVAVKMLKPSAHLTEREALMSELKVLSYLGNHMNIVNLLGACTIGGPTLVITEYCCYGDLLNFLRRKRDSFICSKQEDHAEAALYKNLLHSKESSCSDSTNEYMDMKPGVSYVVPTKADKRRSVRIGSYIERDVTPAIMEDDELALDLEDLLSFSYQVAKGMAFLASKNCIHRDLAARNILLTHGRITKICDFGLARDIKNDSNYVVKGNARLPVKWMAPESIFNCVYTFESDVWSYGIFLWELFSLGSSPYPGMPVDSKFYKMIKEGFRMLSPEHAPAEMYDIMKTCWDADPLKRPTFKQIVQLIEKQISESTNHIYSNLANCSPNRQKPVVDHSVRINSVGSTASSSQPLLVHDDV
T7 sequence (P23458 whole entry): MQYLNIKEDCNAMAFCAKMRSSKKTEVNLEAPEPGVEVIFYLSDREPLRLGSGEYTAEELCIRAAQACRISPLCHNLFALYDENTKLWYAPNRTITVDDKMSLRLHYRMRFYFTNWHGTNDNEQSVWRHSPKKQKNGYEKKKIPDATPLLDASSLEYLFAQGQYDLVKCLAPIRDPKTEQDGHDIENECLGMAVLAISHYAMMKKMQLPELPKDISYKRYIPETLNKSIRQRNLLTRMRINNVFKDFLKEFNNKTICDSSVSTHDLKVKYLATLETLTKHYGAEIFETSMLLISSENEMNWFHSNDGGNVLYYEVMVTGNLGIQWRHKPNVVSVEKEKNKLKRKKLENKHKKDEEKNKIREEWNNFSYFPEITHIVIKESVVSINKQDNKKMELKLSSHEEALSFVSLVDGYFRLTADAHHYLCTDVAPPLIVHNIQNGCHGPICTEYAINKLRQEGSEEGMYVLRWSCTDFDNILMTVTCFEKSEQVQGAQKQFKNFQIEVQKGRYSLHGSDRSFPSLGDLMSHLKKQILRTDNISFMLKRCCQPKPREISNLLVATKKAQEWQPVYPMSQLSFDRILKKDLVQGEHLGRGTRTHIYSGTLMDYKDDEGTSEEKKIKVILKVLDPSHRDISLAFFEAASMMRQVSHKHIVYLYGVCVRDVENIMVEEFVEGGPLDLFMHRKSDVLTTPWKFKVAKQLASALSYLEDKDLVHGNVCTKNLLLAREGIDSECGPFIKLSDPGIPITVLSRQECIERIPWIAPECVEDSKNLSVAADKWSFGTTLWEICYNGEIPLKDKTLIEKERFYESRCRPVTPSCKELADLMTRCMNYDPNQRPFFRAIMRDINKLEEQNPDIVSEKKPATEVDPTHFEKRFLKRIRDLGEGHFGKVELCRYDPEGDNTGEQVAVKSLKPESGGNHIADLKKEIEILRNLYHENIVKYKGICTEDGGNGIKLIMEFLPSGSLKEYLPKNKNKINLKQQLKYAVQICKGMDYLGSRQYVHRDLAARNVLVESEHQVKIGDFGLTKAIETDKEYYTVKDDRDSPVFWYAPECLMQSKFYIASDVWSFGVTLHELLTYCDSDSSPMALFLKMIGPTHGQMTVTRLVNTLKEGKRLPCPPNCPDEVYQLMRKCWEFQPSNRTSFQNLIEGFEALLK
T8 sequence (Q9P289 whole entry): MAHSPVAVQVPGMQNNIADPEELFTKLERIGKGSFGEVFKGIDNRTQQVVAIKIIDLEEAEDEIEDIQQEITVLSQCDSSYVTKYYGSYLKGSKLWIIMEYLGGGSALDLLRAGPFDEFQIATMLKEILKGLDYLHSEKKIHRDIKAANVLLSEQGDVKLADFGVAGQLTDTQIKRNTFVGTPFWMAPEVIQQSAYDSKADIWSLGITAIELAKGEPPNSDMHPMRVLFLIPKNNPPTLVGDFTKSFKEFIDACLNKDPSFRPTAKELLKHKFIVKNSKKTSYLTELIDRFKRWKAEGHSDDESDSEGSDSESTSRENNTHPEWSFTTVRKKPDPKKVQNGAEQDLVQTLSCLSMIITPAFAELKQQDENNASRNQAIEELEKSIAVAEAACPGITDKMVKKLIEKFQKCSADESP
T3 sequence (P51812 whole entry): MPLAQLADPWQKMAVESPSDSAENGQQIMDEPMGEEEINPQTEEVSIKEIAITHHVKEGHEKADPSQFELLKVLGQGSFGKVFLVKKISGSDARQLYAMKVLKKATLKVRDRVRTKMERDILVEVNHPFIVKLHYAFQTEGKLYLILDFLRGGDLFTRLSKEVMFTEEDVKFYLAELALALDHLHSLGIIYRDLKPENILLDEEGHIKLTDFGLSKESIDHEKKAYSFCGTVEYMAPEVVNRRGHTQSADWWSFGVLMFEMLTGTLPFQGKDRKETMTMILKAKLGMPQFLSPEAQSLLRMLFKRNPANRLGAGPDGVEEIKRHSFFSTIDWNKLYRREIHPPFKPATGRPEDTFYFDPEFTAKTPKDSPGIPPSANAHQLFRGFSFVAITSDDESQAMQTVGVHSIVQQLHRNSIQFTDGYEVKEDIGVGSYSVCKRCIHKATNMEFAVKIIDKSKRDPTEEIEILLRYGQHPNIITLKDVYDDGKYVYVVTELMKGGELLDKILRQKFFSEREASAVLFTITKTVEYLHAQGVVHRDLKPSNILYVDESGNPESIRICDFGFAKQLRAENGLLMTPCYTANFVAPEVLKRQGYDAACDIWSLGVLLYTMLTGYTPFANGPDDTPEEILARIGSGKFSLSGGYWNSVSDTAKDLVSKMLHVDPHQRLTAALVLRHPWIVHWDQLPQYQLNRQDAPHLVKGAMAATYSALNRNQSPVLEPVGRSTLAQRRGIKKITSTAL

## N#CCc1ccc(Nc2nc(NCCCN)cc(Nc3cc(C4CC4)[nH]n3)n2)cc1 [KAM]
DYRK1A; 0.001 uM KAM
  median Log10 fold change: -0.05439
DYRK1A; 0.01 uM KAM
  median Log10 fold change: -0.0501
DYRK1A; 0.1 uM KAM
  median Log10 fold change: -0.184
DYRK1A; 1 uM KAM
  median Log10 fold change: -0.2641
DYRK1A; 10 uM KAM
  median Log10 fold change: -0.4024
DYRK1A; [1]
  IC50: 1.47 µM
MAP2K3; [2]
  IC50: > 10 µM
MAP2K3; relative to 0 uM KAM = 0
  0.001 uM KAM: 0.005145
  0.01 uM KAM: -0.01205
  0.1 uM KAM: -0.0928
  1 uM KAM: -0.1584
  10 uM KAM: -0.2828
RPS6KA3; [2]
  IC50: > 10 µM
RPS6KA3; relative to 0 uM KAM = 0
  0.001 uM KAM: -0.01612
  0.01 uM KAM: -0.01929
  0.1 uM KAM: -0.05841
  1 uM KAM: -0.1372
  10 uM KAM: -0.2816
STK24; [2]
  IC50: > 10 µM
STK24; relative to 0 uM KAM = 0
  0.001 uM KAM: -0.01012
  0.01 uM KAM: -0.03939
  0.1 uM KAM: -0.06162
  1 uM KAM: -0.2602
  10 uM KAM: -0.2058
TEC; 0.001 uM KAM
  median Log10 fold change: -0.06308
TEC; 0.01 uM KAM
  median Log10 fold change: -0.04798
TEC; 0.1 uM KAM
  median Log10 fold change: -0.155
TEC; 1 uM KAM
  median Log10 fold change: -0.2973
TEC; 10 uM KAM
  median Log10 fold change: -0.4239
TEC; [1]
  IC50: 1.16 µM
MAP3K7; 0.001 uM KAM
  median Log10 fold change: -0.02589
MAP3K7; 0.01 uM KAM
  median Log10 fold change: -0.01486
MAP3K7; 0.1 uM KAM
  median Log10 fold change: -0.1357
MAP3K7; 1 uM KAM
  median Log10 fold change: -0.3563
MAP3K7; 10 uM KAM
  median Log10 fold change: -0.511
MAP3K7; [1]
  IC50: 0.786 µM
JAK1; 0.001 uM KAM
  median Log10 fold change: -0.0004094
JAK1; 0.01 uM KAM
  median Log10 fold change: 0.001552
JAK1; 0.1 uM KAM
  median Log10 fold change: -0.1118
JAK1; 1 uM KAM
  median Log10 fold change: -0.4812
JAK1; 10 uM KAM
  median Log10 fold change: -0.5497
JAK1; [1]
  IC50: 0.518 µM
STK26; 0.001 uM KAM
  median Log10 fold change: -0.05178
STK26; 0.01 uM KAM
  median Log10 fold change: -0.01072
STK26; 0.1 uM KAM
  median Log10 fold change: -0.2654
STK26; 1 uM KAM
  median Log10 fold change: -0.4176
STK26; 10 uM KAM
  median Log10 fold change: -0.5788
STK26; [1]
  IC50: 0.249 µM
KIT; [2]
  IC50: > 10 µM
KIT; relative to 0 uM KAM = 0
  0.001 uM KAM: -0.03484
  0.01 uM KAM: -0.02696
  0.1 uM KAM: -0.08182
  1 uM KAM: -0.1617
  10 uM KAM: -0.1565
